In US9144557B2, “Hematopoietic growth factor mimetic small molecule compounds and their uses” (Ligand Pharmaceuticals Inc., priority 2009, dated 2015):

system: UT7/EPO Cell line; assay: Cell Proliferation Assay (UT7/EPO, ViaLight Plus); assay type: cell-based, human; conditions: proliferative effect; compounds at 10 uM; UT7/EPO cells starved of EPO overnight; 72 hours at 37° C.; ViaLight Plus kit
Experimental: The primary testing for the examplfied compounds was performed in UT7/EPO Cell line. UT7/EPO is human leukemia cell line, obtained from Dr. Norio Komatsu (Blood, Vol 82 (2), pp 456-464, 1993). These cells express endogenous EPO receptor and are dependant upon EPO for growth and proliferation. Briefly, the cells were starved of EPO overnight and plated in 96 or 384 well plates. The compounds were added to the cells at 10 uM concentration. The plates were then incubated at 37° C. for 72 hours. The proliferative effect of the compounds was measured by a commercially available kit from Lonza (ViaLight Plus).

First: CN(C)c1ccc(NC(=O)c2ccc(-c3nc4cc(NC(=O)c5ccccc5)ccc4[nH]3)cc2)cc1 [Compound 191, 4-(5-benzamido-1H-benzo[d]imidazol-2-yl)-N-(4-(dimethylamino)phenyl)benzamide]
Second: CN(C)c1ccc(C(=O)Nc2ccc(-c3nc4cc(NC(=O)c5ccc(N(C)C)cc5)ccc4[nH]3)cc2)cc1 [Compound 1700, 4-Dimethylamino-N-(4-(5-(4-dimethylaminobenzamido)-1H-benzimidazol-2-yl)phenyl)benzamide]
The “Activity (%)” value of the first is higher: 18% for the first, 17% for the second.

`CN(C)c1ccc(-c2nc3cc(C(=O)Nc4ccc(NC(=O)c5ccc6[nH]c(-c7ccc(N(C)C)cc7)nc6c5)cc4)ccc3[nH]2)cc1` [Compound 283, N,N′-(1,4-phenylene)bis(2-(4-(dimethylamino)phenyl)-1H-benzo[d]imidazole-5-carboxamide)] and `CN(C)c1ccc(C(=O)Nc2ccc3[nH]c(-c4ccc(-c5ccc(N(C)C)cc5)cc4)nc3c2)cc1` [Compound 220, 4-(dimethylamino)-N-(2-(4′-(dimethylamino)-[1,1′-biphenyl]-4-yl)-1H-benzo[d]imidazol-5-yl)benzamide] are the same in “Activity (%)” value: 19% for the first, 19% for the second.

Going from `CN(CCO)c1ccc(C(=O)Nc2ccc3[nH]c(-c4ccc(C(=O)NC5CC5)cc4)nc3c2)cc1` [Compound 235, N-cyclopropyl-4-(5-(4-((2-hydroxyethyl)(methyl)amino)benzamido)-1H-benzo[d]imidazol-2-yl)benzamide] to `O=C(Nc1ccccc1)c1ccc(-c2nc3cc(NC(=O)c4ccccc4)ccc3[nH]2)cc1` [Compound 1747, N-Phenyl-4-(5-benzamido-1H-benzimidazol-2-yl)benzamide], the “Activity (%)” value rises from 15% to 19%.

Going from `O=C(Nc1ccc2c(c1)ncn2-c1ccc(NC(=O)C2CC2)cc1)c1ccc(N2CCC(O)CC2)cc1` [Compound 560, N-(4-(5-(4-(4-Hydroxypiperidin-1-yl)benzamido)-1H-benzimidazol-1-yl)phenyl)cyclopropylcarboxamide] to `O=C(Nc1ccc2c(cnn2-c2ccc(NC(=O)c3cnc4cc[nH]c4c3)cc2)c1)c1ccc(N2CCC(O)CC2)cc1` [Compound 1005, N-(4-(5-(4-(4-Hydroxypiperidin-1-yl)benzamido)-1H-indazol-1-yl)phenyl)-1H-pyrrolo[3,2-b]pyridine-6-carboxamide], the “Activity (%)” value falls from 14% to 13%.

Compared with `Cc1cc(C(=O)Nc2ccc(Nc3ccc(NC(=O)c4ccc(N5CCC(O)CC5)cc4)cc3)cc2)c(C)[nH]1` [Compound 790], `CCOC(=O)Cn1c(Cl)ccc1C(=O)Nc1ccc(Nc2ccc(NC(=O)c3ccc(N4CCC(O)CC4)cc3)cc2)cc1` [Compound 830, Ethyl 2-(2-chloro-5-((4-((4-(4-(4-hydroxypiperidin-1-yl)benzamido)phenyl)amino)phenyl)carbamoyl)-1H-pyrrol-1-yl)acetate] is lower in “Activity (%)” value: 18% for the first, 15% for the second.

Compared with `O=C(N/N=C/c1cccc(/C=N/NC(=O)c2ccc(N(CC(F)(F)F)CC(F)(F)F)cc2)c1)c1ccc(N(CC(F)(F)F)CC(F)(F)F)cc1` [Compound 115, (N′,N′″E,N′,N′″E)-N′,N′″-(1,3-phenylenebis(methanylylidene))bis(4-(bis(2,2,2-trifluoroethyl)amino)benzohydrazide)], `C=CCOc1cc(/C=N/NC(=O)c2ccc(N(C)C)cc2)cc(/C=N/NC(=O)c2ccc(N(C)C)cc2)c1` [Compound 113, (N′,N′″E,N′,N′″E)-N′,N′″-((5-(allyloxy)-1,3-phenylene)bis(methanylylidene))bis(4-(dimethylamino)benzohydrazide)] is lower in “Activity (%)” value: 22% for the first, 17% for the second.

Going from `Cn1cccc1C(=O)Nc1ccc(N(C(=O)c2cccn2C)c2ccc(NC(=O)c3ccc(N4CCC(O)CC4)cc3)cc2)cc1` [Compound 745] to `Cn1nccc1C(=O)Nc1ccc(C(=O)c2ccc(NC(=O)c3ccc(N4CCC(O)CC4)cc3)cc2)cc1` [Compound 720, N-(4-(4-(4-(4-Hydroxypiperidin-1-yl)benzamido)benzoyl)phenyl)-1-methyl-1H-pyrazole-5-carboxamide], the “Activity (%)” value falls from 17% to 16%.

First: Nc1ccc(-n2ncc3cc(NC(=O)c4ccc(N5CCOCC5)cc4)ccc32)cc1 [Compound 381, N-(1-(4-Aminophenyl)-1H-indazol-5-yl)-4-morpholinobenzamide]
Second: CN1CCN(C(=O)Nc2ccc(-n3ncc4cc(NC(=O)c5ccc(N6CCOCC6)cc5)ccc43)cc2)CC1 [Compound 550, 4-Methyl-N-(4-(5-(4-morpholinobenzamido)-1H-indazol-1-yl)phenyl)piperazine-1-carboxamide]
The “Activity (%)” value of the first is higher: 15% for the first, 9% for the second.

Compared with `CC(=O)Nc1ccc2[nH]c(-c3ccc(C(=O)Nc4ccc(N5CCOCC5)cc4)cc3)nc2c1` [Compound 454, 4-(5-Acetamino-1H-benzimidazol-2-yl)-N-(4-morpholinophenyl)benzamide], `O=C(Nc1ccc(N2CCOCC2)cc1)c1ccc(-c2nc3ccccc3[nH]2)cc1` [Compound 458, 4-(1H-Benzimidazol-2-yl)-N-(4-morpholinophenyl)benzamide] is lower in “Activity (%)” value: 16% for the first, 10% for the second.

First: Cc1cc(C(=O)Nc2ccc(C(=O)c3ccc(NC(=O)c4ccc(N5CCOCC5)cc4)cc3)cc2)cc(Cl)n1 [Compound 620, 4-Morpholino-N-(4-(4-(2-chloro-6-methylpyridine-4-carboxamido)benzoyl)phenyl)benzamide]
Second: O=C(Nc1ccc(C(=O)c2ccc(NC(=O)c3ccsc3)cc2)cc1)c1ccc(N2CCOCC2)cc1 [Compound 490, N-(4-(4-(3-Thienylcarboxamido)benzoyl)phenyl)-4-morpholinobenzamide]
The “Activity (%)” value of the first is higher: 18% for the first, 15% for the second.

Compared with `Nc1ccc(C(=O)Nc2ccc(Nc3ccc(NC(=O)c4ccc(N)cc4)cc3)cc2)cc1` [Compound 580, N,N′-(4,4′-Azanediylbis(4,1-phenylene))bis(4-aminobenzamide)], `CN(C)c1ccc(C(=O)Nc2ccc(Sc3ccc(NC(=O)c4ccc(N(C)C)cc4)cc3)cc2)cc1` [Compound 408, N,N′-(4,4′-Thiobis(4,1-phenylene))bis(4-(dimethylamino)benzamide)] is lower in “Activity (%)” value: 16% for the first, 13% for the second.

Compared with `N#CCNC(=O)c1ccc(-n2ncc3cc(NC(=O)c4ccc(N5CCC(O)CC5)cc4)ccc32)cc1` [Compound 1045, N-(Cyanomethyl)-4-(5-(4-(4-hydroxypiperidin-1-yl)benzamido)-1H-indazol-1-yl)benzamide], `O=C(O)CNC(=O)Cn1ccc2cc(NC(=O)c3ccc(-n4ccc5cc(NC(=O)c6ccc(N7CCC(O)CC7)cc6)ccc54)cc3)ccc21` [Compound 975] is higher in “Activity (%)” value: 15% for the first, 17% for the second.

Compared with `O=C(Nc1ccccc1)c1ccc(-c2nc3cc(NC(=O)c4ccc(N5CCCCC5)cc4)ccc3[nH]2)cc1` [Compound 215, N-phenyl-4-(5-(4-(piperidin-1-yl)benzamido)-1H-benzo[d]imidazol-2-yl)benzamide], `O=C(Nc1ccc2[nH]c(-c3ccc(N4CCCC4)cc3)nc2c1)c1ccc(N2CCCC2)cc1` [Compound 225, 4-(pyrrolidin-1-yl)-N-(2-(4-(pyrrolidin-1-yl)phenyl)-1H-benzo[d]imidazol-5-yl)benzamide] is higher in “Activity (%)” value: 16% for the first, 20% for the second.

Going from `CN(C)c1ccc(C(=O)Nc2ccc3[nH]c(-c4ccc5c(c4)OCCN5C)nc3c2)cc1` [Compound 181, 4-(Dimethylamino)-N-(2-(4-methyl-3,4-dihydro-2H-benzo[b][1,4]oxazin-7-yl)-1H-benzo[d]imidazol-5-yl)benzamide] to `COc1cccc(Nc2nc3cc(NC(=O)c4ccc5[nH]c(-c6ccc(N(C)C)cc6)nc5c4)ccc3[nH]2)c1` [Compound 439, N-(2-(3-Methoxyphenyl)amino-1H-benzimidazol-5-yl)-2-(4-dimethylaminophenyl)-1H-benzimidazole-5-carbamide], the “Activity (%)” value falls from 20% to 18%.

First: COc1ccc(/C=C/c2nc3cc(-c4ccc5nc(/C=C/c6ccc(OC)cc6)[nH]c5c4)ccc3[nH]2)cc1 [Compound 262, 2,2′-bis((E)-4-methoxystyryl)-1H,3′H-5,5′-bibenzo[d]imidazole]
Second: N#Cc1ccc(-c2nc3ccc(C(=O)Nc4ccc5[nH]c(-c6ccc(OCCO)cc6)nc5c4)cc3[nH]2)cc1 [Compound 294, 2-(4-cyanophenyl)-N-(2-(4-(2-hydroxyethoxy)phenyl)-1H-benzo[d]imidazol-5-yl)-1H-benzo[d]imidazole-6-carboxamide]
The “Activity (%)” value of the first is higher: 20% for the first, 11% for the second.

Compared with `CN(C)c1cccc(/C=N/NC(=O)c2ccc(C(=O)NCCC(=O)NCCO)cc2)c1` [Compound 149, (E)-4-(2-(3-(dimethylamino)benzylidene)hydrazinecarbonyl)-N-(3-((2-hydroxyethyl)amino)-3-oxopropyl)benzamide], `COc1cc(/C=N/NC(=O)c2ccc(C(=O)NCCC(=O)NCCO)cc2)ccc1O` [Compound 146, (E)-4-(2-(4-hydroxy-3-methoxybenzylidene)hydrazinecarbonyl)-N-(3-((2-hydroxyethyl)amino)-3-oxopropyl)benzamide] is lower in “Activity (%)” value: 22% for the first, 19% for the second.

Compared with `O=C(Nc1ccc2[nH]c(-c3ccc(N4CCOCC4)cc3)nc2c1)C(=O)Nc1ccc2nc(-c3ccc(N4CCOCC4)cc3)[nH]c2c1` [Compound 434, N,N′-bis-(2-(4-Morpholinophenyl)-1H-benzimidazol-5-yl)oxalamide], `O=C(Nc1ccc(C(=O)c2ccc(NC(=O)c3ccc(N4CCCCC4)cc3)cc2)cc1)c1ccc(N2CCCCC2)cc1` [Compound 322, N,N′-(carbonylbis(4,1-phenylene))bis(4-(piperidin-1-yl)benzamide)] is higher in “Activity (%)” value: 15% for the first, 20% for the second.

First: O=C(Nc1ccc(Nc2ccc(NC(=O)c3cc[nH]c3)cc2)c(F)c1)c1ccc(N2CCC(O)CC2)cc1 [Compound 860, N-(4-((2-Fluoro-4-(4-(4-hydroxypiperidin-1-yl)benzamido)phenyl)amino)phenyl)-1H-pyrrole-3-carboxamide]
Second: CC(=O)Nc1ccc(C(=O)c2ccc(NC(=O)c3ccc4c(ccn4C)c3)cc2)cc1 [Compound 349]
The “Activity (%)” value of the first is higher: 17% for the first, 11% for the second.
